According to patent publication US10597364B2, “Anthelmintic compounds, compositions and method of using thereof” (priority 2015, dated 2020):
Where two headings read alike, the source gives them in different places.

Key:
[1] = test system: Haemonchus contortus; assay: Method A: Haemonchus contortus L1 larval development/motility screen in microtitre plate; format: cell-based; conditions: 96 h, read-out: motility inhibition
[2] = test system: microfilaria of Dirofilaria immitis; assay: Method C: microfilaria of Dirofilaria immitis motility screen; format: cell-based; conditions: read-out: inhibition of the microfilaria's motility

Structure (SMILES) | inhibition at 5 µM [1] | inhibition at 10 µM ([2]; 24 h) | inhibition at 5 ppm ([2]; 24 h) | inhibition at 10 µM ([2]; 10 μM, 24 hours) | inhibition at 5 ppm ([2]; 5 ppm, 24 hours)
CC(C)(C)CC(=O)N1CCN(c2ccnc(O[C@H]3CC[C@H](Nc4ccc([N+](=O)[O-])c(C(F)(F)F)c4)CC3)c2)CC1 [Compound 25] | ≥ 90% | ≥ 90% |  |  | 
CCCOC(=O)N1CCN(c2cc(O[C@H]3CC[C@H](Nc4ccc([N+](=O)[O-])c(C(F)(F)F)c4)CC3)ccn2)CC1 [Compound 26] | ≥ 90% | ≥ 90% |  |  | 
O=C(CC1CC1)N1CCN(c2cc(O[C@H]3CC[C@H](Nc4ccc([N+](=O)[O-])c(C(F)(F)F)c4)CC3)ccn2)CC1 [Compound 28] | ≥ 90% | ≥ 90% |  |  | 
O=C(Oc1ccc(F)cc1)N1CCN(c2ccnc(O[C@H]3CC[C@H](Nc4ccc([N+](=O)[O-])c(C(F)(F)F)c4)CC3)c2)CC1 [Compound 30] | ≥ 90% |  | ≥ 90% |  | 
CC(C)(C)CC(=O)N1CCN(c2cc(O[C@H]3CC[C@H](Nc4ccc([N+](=O)[O-])c(C(F)(F)F)c4)CC3)ccn2)CC1 [Compound 33] | ≥ 90% | ≥ 90% |  |  | 
CCOC(=O)N1CCN(c2cncc(O[C@H]3CC[C@H](Nc4ccc([N+](=O)[O-])c(C(F)(F)F)c4)CC3)c2)CC1 [Compound 38] | ≥ 90% |  | ≥ 90% |  | 
CCCC(=O)N1CCN(c2ccnc(O[C@H]3CC[C@H](Nc4ccc([N+](=O)[O-])c(C(F)(F)F)c4)CC3)c2)CC1 [Compound 39] | ≥ 90% |  | ≥ 90% |  | 
CCCC(=O)N1CCN(c2cc(O[C@H]3CC[C@H](Nc4ccc([N+](=O)[O-])c(C(F)(F)F)c4)CC3)ccn2)CC1 [Compound 40] | ≥ 90% |  |  | ≥ 90% | 
CCCCN1CCN(c2cc(O[C@H]3CC[C@H](Nc4ccc([N+](=O)[O-])c(C(F)(F)F)c4)CC3)ccn2)CC1 [Compound 41] | ≥ 90% | ≥ 90% |  |  | 
O=C(Cc1ccc(F)cc1)N1CCN(c2cc(O[C@H]3CC[C@H](Nc4ccc([N+](=O)[O-])c(C(F)(F)F)c4)CC3)ccn2)CC1 [Compound 46] | ≥ 90% | ≥ 90% |  |  | 
O=[N+]([O-])c1ccc(N[C@H]2CC[C@H](Oc3cc(N4CCN(CC5CCCC5)CC4)ccn3)CC2)cc1C(F)(F)F [Compound 47] | ≥ 90% | ≥ 90% |  |  | 
O=[N+]([O-])c1ccc(N[C@H]2CC[C@H](Oc3cncc(N4CCN(C/C=C/c5ccc(C(F)(F)F)cc5)CC4)c3)CC2)cc1C(F)(F)F [Compound 48] | ≥ 90% |  | ≥ 90% |  | 
CC(C)(C)NC(=O)N1CCN(c2cc(O[C@H]3CC[C@H](Nc4ccc([N+](=O)[O-])c(C(F)(F)F)c4)CC3)ccn2)CC1 [Compound 49] | ≥ 90% | ≥ 90% |  |  | 
CCCCN1CCN(c2cncc(O[C@H]3CC[C@H](Nc4ccc([N+](=O)[O-])c(C(F)(F)F)c4)CC3)c2)CC1 [Compound 53] | ≥ 90% | ≥ 90% |  |  | 
CC(C)(C)CN1CCN(c2cncc(O[C@H]3CC[C@H](Nc4ccc([N+](=O)[O-])c(C(F)(F)F)c4)CC3)c2)CC1 [Compound 54] | ≥ 90% |  |  | ≥ 90% | 
O=C(N1CCN(c2ccnc(O[C@H]3CC[C@H](Nc4ccc([N+](=O)[O-])c(C(F)(F)F)c4)CC3)c2)CC1)C(F)(F)F [Compound 58] | ≥ 90% |  |  |  | ≥ 90%
CC(C)(C)OC(=O)N1CCN(c2ccnc(O[C@H]3CC[C@H](Nc4ccc(C#N)c(C(F)(F)F)c4)CC3)c2)CC1 [Compound 59] | ≥ 90% | ≥ 90% |  |  | 
CCC(=O)N1CCN(c2cc(O[C@H]3CC[C@H](Nc4ccc([N+](=O)[O-])c(C(F)(F)F)c4)CC3)ccn2)CC1 [Compound 60] | ≥ 90% |  |  | ≥ 90% | 
O=C(Cc1ccc(C(F)(F)F)cc1)N1CCN(c2ccnc(O[C@H]3CC[C@H](Nc4ccc([N+](=O)[O-])c(C(F)(F)F)c4)CC3)c2)CC1 [Compound 61] | ≥ 90% |  | ≥ 90% |  | 
CCC(=O)N1CCN(c2cncc(O[C@H]3CC[C@H](Nc4ccc([N+](=O)[O-])c(C(F)(F)F)c4)CC3)c2)CC1 [Compound 64] | ≥ 90% |  | ≥ 90% |  | 
CC(C)(C)NC(=O)N1CCN(c2ccnc(O[C@H]3CC[C@H](Nc4ccc([N+](=O)[O-])c(C(F)(F)F)c4)CC3)c2)CC1 [Compound 65, N-tert-butyl-4-[2-[(4-[[4-nitro-3-(trifluoromethyl)phenyl]amino]cyclohexyl)oxy]pyridin-4-yl]piper-azine-1-carboxamide] | ≥ 90% |  | ≥ 90% |  | 
CC(C)(C)NC(=O)N1CCN(c2cncc(O[C@H]3CC[C@H](Nc4ccc([N+](=O)[O-])c(C(F)(F)F)c4)CC3)c2)CC1 [Compound 66] | ≥ 90% |  | ≥ 90% |  | 
CC(C)(C)CN1CCN(c2cc(O[C@H]3CC[C@H](Nc4ccc([N+](=O)[O-])c(C(F)(F)F)c4)CC3)ccn2)CC1 [Compound 67] | ≥ 90% |  |  | ≥ 90% | 
